Patent US20150133512A1, “N-ARYLTRIAZOLE COMPOUNDS AS LPAR ANTAGONISTS” (Hoffmann-La Roche Inc,, priority 2012, published 2015)

Columns and labels:
LPA3 = molecular target: T1, LPA3 (Homo sapiens, UniProt Q9UBY5); assay: Calcium flux assay using FLIPR, LPA3 antagonist activity; type: cell-based; conditions: for IC50: antagonist activity
T1 sequence (Q9UBY5 1-353): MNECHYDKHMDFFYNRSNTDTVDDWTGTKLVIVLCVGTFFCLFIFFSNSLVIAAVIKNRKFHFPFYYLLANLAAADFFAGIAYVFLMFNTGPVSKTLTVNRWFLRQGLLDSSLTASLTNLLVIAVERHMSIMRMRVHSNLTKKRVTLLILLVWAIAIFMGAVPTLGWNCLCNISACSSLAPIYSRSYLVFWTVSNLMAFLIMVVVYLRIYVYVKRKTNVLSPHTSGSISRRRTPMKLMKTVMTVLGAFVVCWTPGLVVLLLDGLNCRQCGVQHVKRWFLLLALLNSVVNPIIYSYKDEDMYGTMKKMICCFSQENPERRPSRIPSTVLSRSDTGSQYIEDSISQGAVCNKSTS
Method: (§1) Calcium Flux Assay Using Fluorometric Imaging Plate Reader (FLIPR)
(§2) Dye Loading and Assay: Loading Buffer (FLIPR Calcium-4, Molecular Devices) was prepared by dissolving the contents of one bottle into 100 mL Hank's Balanced Salt Solution containing 20 mM HEPES and 2.5 mM probenecid. Plates were loaded onto Biotek plate washer and growth media was removed and replaced with 20 μL of Hank's Balanced Salt Solution containing 20 mM HEPES and 2.5 mM probenecid, followed by 25 μL of Loading Buffer. The plates were then incubated for 30 minutes at 37° C.
During the incubation, test compounds were prepared by adding 90 μL of HBSS/20 mM HEPES/0.1% BSA buffer to 2 μL of serially diluted compounds. To prepare serial dilutions, 10 mM stocks of compounds were prepared in 100% DMSO. The compound dilution plate was set up as follows: well #1 received 29 μL of stock compound and 31 μL DMSO; wells 2-10 received 40 μL of DMSO; mixed and transferred 20 μL of solution from well #1 into well #2; continued with 1:3 serial dilutions out 10 steps; transferred 2 μL of diluted compound into duplicate wells of 384 well “assay plate” and then added the 90 μL of buffer.
After incubation, both the cell and “assay” plates were brought to the FLIPR and 20 μL of the diluted compounds were transferred to the cell plates by the FLIPR. Compound addition was monitored by FLIPR to detect any agonist activity of the compounds. Plates were then incubated for 30 minutes at room temperature protected from light. After the incubation, plates were returned to the FLIPR and 20 μL of 4.5× concentrated agonist was added to the cell plates. During the assay, fluorescence readings were taken simultaneously from all 384 wells of the cell plate every 1.5 seconds. Five readings were taken to establish a stable baseline, then 20 μL of sample was rapidly (30 μL/sec) and simultaneously added to each well of the cell plate. The fluorescence was continuously monitored before, during and after sample addition for a total elapsed time of 100 seconds. Responses (increase in peak fluorescence) in each well following agonist addition was determined. The initial fluorescence reading from each well, prior to ligand stimulation, was used as zero baseline value for the data from that well. The responses were expressed as % inhibition of the buffer control.

[1] = molecular target: human recombinant LPA1 Lysophospholipid receptor (Homo sapiens, UniProt Q92633); assay: Calcium flux assay using FLIPR, LPA1 antagonist activity; type: cell-based; conditions: for IC50: ChemiScreen Calcium-optimized stable cell line, antagonist mode, inhibition of agonist-induced calcium flux
Method: as §1
Cell Culture Conditions: The ChemiScreen Calcium-optimized stable cell line containing the human recombinant LPA1 Lysophospholipid receptor was purchased from Chemicon International, Inc./Millipore. The cells were cultured in DMEM-high glucose supplemented with 10% fetal bovine serum, 2 mM glutamine, 100 U/mL penicillin/100 μg/mL streptomycin, 1× non-essential amino acids, 10 mM HEPES and 0.25 mg/mL Geneticin. Cells were harvested with trypsin-EDTA and counted using ViaCount reagent. The cell suspension volume was adjusted to 2.0×10^5 cells/mL with complete growth media. Aliquots of 50 μL were dispensed into 384 well black/clear tissue culture treated plates (BD) and the microplates were placed in a 37° C. incubator overnight. The following day plates were used in the assay.
as §2
During the incubation, test compounds were prepared by adding 90 μL of HBSS/20 mM HEPES/0.1% BSA buffer to 2 μL of serially diluted compounds. To prepare serial dilutions, 10 mM stocks of compounds were prepared in 100% DMSO.
After incubation, both the cell and “assay” plates were brought to the FLIPR and 20 μL of the diluted compounds were transferred to the cell plates by the FLIPR. Compound addition was monitored by FLIPR to detect any agonist activity of the compounds. Plates were then incubated for 30 minutes at room temperature protected from light. […] During the assay, fluorescence readings were taken simultaneously from all 384 wells of the cell plate every 1.5 seconds. Five readings were taken to establish a stable baseline, then 20 μL of sample was rapidly (30 μL/sec) and simultaneously added to each well of the cell plate. The fluorescence was continuously monitored before, during and after sample addition for a total elapsed time of 100 seconds. Responses (increase in peak fluorescence) in each well following agonist addition was determined. The initial fluorescence reading from each well, prior to ligand stimulation, was used as zero baseline value for the data from that well. The responses were expressed as % inhibition of the buffer control.

Sequence of human recombinant LPA1 Lysophospholipid receptor (Q92633 whole entry): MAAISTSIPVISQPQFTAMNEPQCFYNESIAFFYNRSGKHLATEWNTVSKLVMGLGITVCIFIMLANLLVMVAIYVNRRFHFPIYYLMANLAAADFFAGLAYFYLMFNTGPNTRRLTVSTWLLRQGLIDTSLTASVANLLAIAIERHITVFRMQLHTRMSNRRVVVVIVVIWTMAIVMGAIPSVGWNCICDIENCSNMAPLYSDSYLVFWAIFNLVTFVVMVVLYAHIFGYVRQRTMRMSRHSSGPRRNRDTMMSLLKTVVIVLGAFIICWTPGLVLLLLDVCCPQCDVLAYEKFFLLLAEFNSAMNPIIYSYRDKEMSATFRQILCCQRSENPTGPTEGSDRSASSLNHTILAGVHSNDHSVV

Row | SMILES | IC50 (LPA3) [µM] | IC50 [1] [µM] | inhibition at 30 µM [1] [%] | inhibition at 30 µM (LPA3) [%]
1 | C[C@@H](OC(=O)Nc1cnnn1-c1ccc(-c2ccc(CC(=O)O)cc2)cc1)c1ccccc1 [Example 22, {4′-[5-((R)-1-Phenyl-ethoxycarbonylamino)-[1,2,3]triazol-1-yl]-biphenyl-4-yl}-acetic acid] | > 30 | > 30 |  | 
2 | CCc1nnn(-c2ccc(-c3ccc(CC(=O)O)cc3)cc2)c1NC(=O)O[C@H](C)c1ccccc1 [Example 18, {4′-[4-Ethyl-5-((R)-1-phenyl-ethoxycarbonylamino)-[1,2,3]triazol-1-yl]-biphenyl-4-yl}-acetic acid] | > 30 | 1.23 | 79.8 | 
3 | Cc1nnn(-c2ccc(-c3ccc(C4(C(=O)NS(C)(=O)=O)CC4)cc3)cc2)c1NC(=O)O[C@H](C)c1ccccc1 [Example 30, {3-[4′-(1-Methanesulfonylaminocarbonyl-cyclopropyl)-biphenyl-4-yl]-5-methyl-3H[1,2,3]triazol-4-yl}-carbamic acid (R)-1-phenyl-ethyl ester] | > 30 | 0.033 |  | 
4 | CCc1nnn(-c2ccc(-c3ccc(C4(C(=O)O)CC4)cc3)cc2)c1NC(=O)O[C@H](C)c1cccc(C(F)(F)F)c1 [Example 19, 1-(4′-{4-Ethyl-5-[(R)-1-(3-trifluoromethyl-phenyl)-ethoxycarbonylamino]-[1,2,3]triazol-1-yl}-biphenyl-4-yl)-cyclopropanecarboxylic acid] | 4.82 | 0.412 |  | 
5 | Cc1nnn(-c2ccc(C3CCC(CC(=O)O)CC3)cc2)c1NC(=O)O[C@H](C)c1ccccc1 (stereo partly drawn) [Example 34, (R)-2-(4-(4-(4-Methyl-5-((1-phenylethoxy)carbonylamino)-1H-1,2,3-triazol-1-yl)phenyl)cyclohexyl)acetic acid] | > 30 | 9.48 |  | 
6 | Cc1c(NC(=O)O[C@H](C)c2ccccc2)nnn1-c1ccc(-c2ccc(CC(=O)O)cc2)cc1 [Example 4, {4′-[5-Methyl-4-((R)-1-phenyl-ethoxycarbonylamino)-[1,2,3]triazol-1-yl]-biphenyl-4-yl}-acetic acid] | > 30 | > 30 |  | 
7 | Cc1nnn(-c2ccc(-c3ccc(C4(C(=O)O)CC4)cc3)cc2)c1NC(=O)OC(C)(C)C [Example 14, 1-[4′-(5-tert-Butoxycarbonylamino-4-methyl-[1,2,3]triazol-1-yl)-biphenyl-4-yl]-cyclopropanecarboxylic acid] | > 30 | 0.985 |  | 
8 | Cc1nnn(-c2ccc(-c3ccc(C4(C(=O)O)CC4)c(F)c3)cc2)c1NC(=O)O[C@H](C)c1ccccc1 [Example 15, 1-{3-Fluoro-4′-[4-methyl-5-((R)-1-phenyl-ethoxycarbonylamino)-[1,2,3]triazol-1-yl]-biphenyl-4-yl}-cyclopropanecarboxylic acid] |  | 0.022 |  | 46.3
9 | C[C@@H](OC(=O)Nc1nncn1-c1ccc(-c2ccc(C3(C(=O)O)CC3)cc2)cc1)c1ccccc1 [Example 31, 1-{4′-[3-((R)-1-Phenyl-ethoxycarbonylamino)-[1,2,4]triazol-4-yl]-biphenyl-4-yl}-cyclopropanecarboxylic acid] | > 30 | > 30 | 11 | 
10 | COc1cc(-c2ccc(C3(C(=O)O)CC3)cc2)ccc1-n1nnc(C)c1NC(=O)O[C@H](C)c1ccccc1 [Example 16, 1-{3′-Methoxy-4′-[4-methyl-5-((R)-1-phenyl-ethoxycarbonylamino)-[1,2,3]triazol-1-yl]-biphenyl-4-yl}-cyclopropanecarboxylic acid] | > 30 | 0.245 |  | 
11 | Cc1nnn(-c2ccc(-c3ccc(C4(c5nnn[nH]5)CC4)cc3)cc2)c1NC(=O)O[C@H](C)c1ccccc1 [Example 29, (R)-1-Phenyl-ethyl-1-(4′-(1-(1H-tetrazol-5-yl)cyclopropyl)biphenyl-4-yl)-4-methyl-1H-1,2,3-triazol-5-ylcarbamate] | > 30 |  |  | 
12 | Cc1nnn(-c2ccc(-c3ccc(C#N)cc3)cc2)c1NC(=O)O[C@H](C)c1ccccc1 [Example 28, [3-(4′-Cyano-biphenyl-4-yl)-5-methyl-3H-[1,2,3]triazol-4-yl]-carbamic acid (R)-1-phenyl-ethyl ester] | > 30 | > 30 |  | 

The remaining lines, values ahead:

Row | IC50 (LPA3) [µM] | IC50 [1] [µM] | inhibition at 30 µM [1] [%] | inhibition at 30 µM (LPA3) [%] | SMILES
13 | > 30 | > 30 |  |  | Cc1nnn(-c2cccc(-c3ccc(C4(C(=O)O)CC4)cc3)c2)c1NC(=O)O[C@H](C)c1ccccc1 [Example 25, 1-{3′-[4-Methyl-5-((R)-1-phenyl-ethoxycarbonylamino)-[1,2,3]triazol-1-yl]-biphenyl-4-yl}-cyclopropanecarboxylic acid]
14 | > 30 | 0.174 |  |  | Cc1nnn(-c2ccc(-c3ccc(C4(C(=O)O)CCC4)cc3)cc2)c1NC(=O)O[C@H](C)c1ccccc1 (single isomer, unassigned) [Example 32]
15 | > 30 | 0.161 |  |  | Cc1nnn(-c2ccc(-c3ccc(C4(C(=O)O)CC4)cc3)cc2)c1NC(=O)OC(C)C1CCC1 (centres unmarked) [Example 13, 1-{4′-[5-(1-Cyclobutyl-ethoxycarbonylamino)-4-methyl-[1,2,3]triazol-1-yl]-biphenyl-4-yl}-cyclopropanecarboxylic acid]
16 | 21.7 | 0.043 |  | 63.7 | CCc1nnn(-c2ccc(-c3ccc(C4(C(=O)O)CC4)cc3)cc2)c1NC(=O)O[C@H](C)c1ccccc1 [Example 17, 1-{4′-[4-Ethyl-5-((R)-1-phenyl-ethoxycarbonylamino)-[1,2,3]triazol-1-yl]-biphenyl-4-yl}-cyclopropanecarboxylic acid]
17 | > 30 | 0.217 |  |  | Cc1nnn(-c2ccc(-c3ccc(C4(C(=O)O)CC4)cc3)cc2)c1NC(=O)O[C@H](C)C(C)C [Example 9, 1-{4′-[5-((R)-1,2-Dimethyl-propoxycarbonylamino)-4-methyl-[1,2,3]triazol-1-yl]-biphenyl-4-yl}-cyclopropanecarboxylic acid]
18 | > 30 | 0.134 |  |  | Cc1nnn(-c2ccc(-c3ccc(C4(C(=O)O)CC4)cc3)cc2)c1NC(=O)OC(C)C1CC1 (centres unmarked) [Example 12, 1-{4′-[5-(1-Cyclopropyl-ethoxycarbonylamino)-4-methyl-[1,2,3]triazol-1-yl]-biphenyl-4-yl}-cyclopropanecarboxylic acid]
19 | > 30 | > 30 |  |  | Cc1nnn(-c2ccc(-c3ccc(C4(C(=O)O)CC4)cc3)cc2)c1NC(=O)O[C@@H]1CCc2ccccc21 [Example 8, 1-{4′-[5-((R)-Indan-1-yloxycarbonylamino)-4-methyl-[1,2,3]triazol-1-yl]-biphenyl-4-yl}-cyclopropanecarboxylic acid]
20 | > 30 |  |  |  | Cc1nnn(-c2ccc(-c3ccc(C4(C(=O)O)CC4)cc3)cc2)c1NC(=O)O[C@H](C)c1ccccc1F [Example 5, 1-(4′-{5-[(R)-1-(2-Fluoro-phenyl)-ethoxycarbonylamino]-4-methyl-[1,2,3]triazol-1-yl}-biphenyl-4-yl)-cyclopropanecarboxylic acid]
